Assay results taken from PubChem BioAssay AID467 (The Scripps Research Institute Molecular Screening Center, 2006).
pEC50: −log10 of the molar value. Activity calls are given as the source filed them. The rule behind the calls is not given here.

Tested on: parental cell line counter screen, S1P1 agonist assay readout
Assay: signal in parental cells, counter-screen for S1P1 agonist project (AID 467);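 note: agonist potency measured against forskolin stimulation plus an EC20 level of SEW2871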

Row | SMILES | EC50 | pEC50
1 | C=CCN1C(=Nc2cccnc2)SCC1(O)c1ccc(C)cc1 (stereo not given) | 31.9 µM (inactive) | 
2 | CCOc1cc(C2NCc3ccccc3-n3cccc32)ccc1O (stereo not given) | > 95.1 µM (inactive) | 
3 | Cc1noc(/C=C/N(C)C)c1S(=O)(=O)N1CCc2ccccc21 | > 95.1 µM (inactive) | 
4 | Cc1nnc(SCC(=O)N2CCC(c3noc4ccc(F)cc34)CC2)s1 | > 95.1 µM (inactive) | 
5 | O=S(=O)(Nc1ccc2c(c1)OCCO2)c1ccc2oc3ccccc3c2c1 | 16.4 µM (inactive) | 
6 | COc1ccc(C(c2c(O)ccc3ccccc23)N2CCOCC2)c(OC)c1 (stereo not given) |  | 5.84
7 | O=C(CSCC(=O)N1CCCCC1)Nc1nc(-c2cccs2)cs1 | > 30 µM (inactive) | 
8 | Cc1cc(C(=O)CSc2nnc(-c3ccncc3)n2-c2ccccc2)c(C)n1C | > 95.1 µM (inactive) | 
9 | c1ccc(CSc2nnc(-c3c[nH]c4ccccc34)o2)cc1 | 41.4 µM (inactive) | 
10 | Cc1noc(C)c1S(=O)(=O)N(CC(=O)Nc1ccc2c(c1)OCCO2)c1ccc(C(C)C)cc1 | > 95.1 µM (inactive) | 
11 | COc1ccc(OC)c(-c2cc(C(=O)Nc3c(C)nn(Cc4ccc(Cl)cc4)c3C)no2)c1 | > 95.1 µM (inactive) | 
12 | Cc1ccc2[nH]c3c(N4CCCCCC4)ncnc3c2c1 | 10.9 µM (inactive) | 
13 | CCN(CC)S(=O)(=O)c1cc(C(=O)Nc2ccncc2)ccc1Cl | > 95.1 µM (inactive) | 
14 | CCC(=NCc1ccc2c(c1)OCO2)c1c(O)n(C2CCCCC2)c(=O)[nH]c1=O | 26.6 µM (inactive) | 
15 | O=C(CSc1nnc(-c2c[nH]c3ccccc23)o1)N(Cc1ccccc1)c1ccc(F)cc1 | 16 µM (inactive) | 
16 | CCOC(=O)c1cccc2c1-c1ccccc1/C2=N/O | 12 µM (inactive) | 
17 | O=C(CCN1CCc2ccccc2CC1)c1ccc2c(c1)OCCO2 |  | 5.32
18 | CC(=O)N1CCCc2cc(S(=O)(=O)NCCC3=CCCCC3)ccc21 | > 95.1 µM (inactive) | 
19 | O=C(CSc1nnc(-c2ccc(Cl)cc2)n1Cc1ccco1)c1cccs1 | > 30 µM (inactive) | 
20 | O=C(Nc1ccc(O)cc1)c1cc2n(n1)C(C(F)(F)F)CC(c1ccco1)N2 (stereo not given) | > 95.1 µM (inactive) | 
21 | CCc1c(C)nc2ncnn2c1NCCc1ccc(OC)cc1 | 40.9 µM (inactive) | 
22 | CCc1ccc(NC(=O)c2cc(-c3ccco3)on2)cc1 | > 95.1 µM (inactive) | 
23 | CCCC(=O)Nc1ccc(-c2nc3cc(C)c(C)cc3o2)cc1 | > 95.1 µM (inactive) | 
24 | Cc1n[nH]c(C)c1N1C(=O)c2cccc3c(N4CCCCCC4)ccc(c23)C1=O | 37 µM (inactive) | 
25 | Cc1onc(-c2ccccc2Cl)c1C(=O)Oc1cc(N)n(S(=O)(=O)c2ccc(F)cc2)n1 |  | 5.04

Row | SMILES | EC50 | pEC50
26 | CCCCCn1c(=O)c(C(=O)NCc2ccncc2)c(O)c2ccccc21 | 30.8 µM (inactive) | 
27 | COc1ccc(S(=O)(=O)Cc2ccc(C(=O)N3CCN(c4cccc(C)c4C)CC3)o2)cc1 | > 30 µM (inactive) | 
28 | COc1cc(C#CC#CCN2CCCCC2)ccc1O | 63.9 µM (inactive) | 
29 | O=C(NCc1ccc2c(c1)OCO2)C1CC(=O)N(C2CCCCCCC2)C1 (stereo not given) | > 95.1 µM (inactive) | 
30 | CN1/C(=C/C(=O)c2nc(S(C)(=O)=O)ncc2Cl)C(C)(C)c2ccccc21 |  | 5.65
31 | COC(=O)C1=CN(CCCN2CCCC2=O)C=C(C(=O)OC)C1c1ccccc1C(F)(F)F | > 95.1 µM (inactive) | 
32 | Cc1cc(C(=O)N2CCN(C(c3ccccc3)c3ccccc3)CC2)on1 | > 95.1 µM (inactive) | 
33 | COc1ccc(-c2nc(-c3cccc(C)c3)no2)cc1OC | > 95.1 µM (inactive) | 
34 | O=C(Cc1c[nH]c2ccccc12)N1CCc2ccccc21 | > 95.1 µM (inactive) | 
35 | Cc1noc(C)c1S(=O)(=O)N(CC(=O)Nc1ccc2c(c1)OCO2)c1ccc(C(C)C)cc1 | > 95.1 µM (inactive) | 
36 | Fc1ccc2[nH]c3c(N4CCN(Cc5ccc6c(c5)OCO6)CC4)ncnc3c2c1 |  | 5.09
37 | COc1ccccc1-n1nnnc1S(=O)(=O)Cc1ccc(Cl)cc1 |  | 5.52
38 | CCN(C(=O)C1CCCCC1)c1nnc(-c2cccnc2)s1 | > 95.1 µM (inactive) | 
39 | Cn1cccc1C(=O)OCc1cc(Cl)cc2c1OCOC2 | > 30 µM (inactive) | 
40 | c1csc(CCNc2ncnc3sc4c(c23)CCC4)c1 | 20.3 µM (inactive) | 
41 | Cc1cc(/C=N/n2cnnc2)c(C)n1-c1ccc(OCc2ccccc2F)cc1 |  | 5.13
42 | CCC(=NC(C)c1ccccc1)c1c(O)n(C)c(=O)n(C)c1=O (stereo not given) | > 30 µM (inactive) | 
43 | O=C(c1cc(-c2ccco2)on1)N1CCN(C(c2ccccc2)c2ccccc2)CC1 | > 95.1 µM (inactive) | 
44 | C=C(C)COc1ccc(-c2nc(N)nc(C)c2Oc2ccccc2OC)c(O)c1 | > 10 µM (inactive) | 
45 | CCN(CC)c1ccc(-n2c(C)c(C(C)=O)c(C(C)=O)c2C)cc1 | > 95.1 µM (inactive) | 
46 | COc1ccc(-c2cn3c(C)c(C(=O)Nc4ccncc4)sc3n2)cc1 | > 95.1 µM (inactive) | 
47 | Cc1nc(NC(C)c2ccccc2)c2oc3ccccc3c2n1 (stereo not given) | 52.9 µM (inactive) | 
48 | Cc1ccc(-n2ncc3c(N4CCCC(C)C4)ncnc32)c(C)c1 (stereo not given) | 36.1 µM (inactive) | 
49 | Cc1cccc(N2CCN(C(=O)C3CCCN(S(=O)(=O)c4cccc5cccnc45)C3)CC2)c1C (stereo not given) | 28.7 µM (inactive) | 
50 | COc1cc2c(cc1OC)C(C)N(C(=O)c1cc3ccccc3o1)CC2 (stereo not given) | > 95.1 µM (inactive) | 

Row | SMILES | EC50 | pEC50
51 | O=C(C1CCN(S(=O)(=O)c2cccc3cccnc23)CC1)N1CCN(c2ccc(Cl)cc2)CC1 | 38.3 µM (inactive) | 
52 | c1ccc(CSc2nnc(-c3cccs3)o2)cc1 | > 95.1 µM (inactive) | 
53 | COc1ccc(-c2nc(-c3cccc(C(F)(F)F)c3)no2)cc1OC | > 95.1 µM (inactive) | 
54 | Cc1ccc(OCCn2cc(/C(N)=N/O)c3ccccc32)cc1C | 17 µM (inactive) | 
55 | CC(C)COC(=O)NCCOC(=O)Nc1cccc(Cl)c1 | 27.7 µM (inactive) | 
56 | O=C(CSc1nc2ccccc2o1)Nc1ccc(N2CCOCC2)c(Cl)c1 | 19.6 µM (inactive) | 
57 | COc1ccc(/C=N/O)cc1COc1ccc(NC(C)=O)cc1 | > 95.1 µM (inactive) | 
58 | Cc1cc(/C=N/n2cnnc2)c(C)n1-c1ccc(OCc2ccc(F)cc2)cc1 |  | 5.17
59 | Oc1ccc(N2CCN(c3ncnc4sc5c(c34)CCC5)CC2)cc1 | > 95.1 µM (inactive) | 
60 | O=C(c1cc(-c2ccc(O)cc2)on1)N1CCc2ccccc2C1 | > 30 µM (inactive) | 
61 | CC1=C(C(=O)OCc2ccc3c(c2)OCO3)C(c2ccc(F)cc2)NC(=O)N1 (stereo not given) |  | 5.64
62 | CNc1oc(-c2ccc(OCc3ccccc3)cc2)nc1C#N | > 95.1 µM (inactive) | 
63 | Cc1ccc(N2C(=O)c3cccc4c(N5CCN(C)CC5)ccc(c34)C2=O)c2cccnc12 | > 95.1 µM (inactive) | 
64 | O=S1(=O)C=C(Sc2nc3cc(Cl)ccc3o2)c2ccccc21 |  | 5.20
65 | CC(C)c1cc(C(F)(F)F)n2nc(C(=O)Nc3ccc4c(c3)OCO4)cc2n1 | > 95.1 µM (inactive) | 
66 | Cc1csc(SCC(=O)c2cc(C)n(Cc3cccs3)c2C)n1 | 38.8 µM (inactive) | 
67 | Cc1ccsc1C(=O)OCC(=O)c1cc(C)n(CC2CCCO2)c1C (stereo not given) | > 95.1 µM (inactive) | 
68 | Fc1ccc(COc2ccc(/C=N/n3cnnc3)cc2)cc1 | > 95.1 µM (inactive) | 
69 | c1ccc(-c2ccc(-c3nc(-c4cccnc4)no3)cc2)cc1 | > 95.1 µM (inactive) | 
70 | Cc1cc(C(=O)CC#N)c(C)n1-c1ccc(OC(F)F)cc1 | > 95.1 µM (inactive) | 
71 | Oc1ccc(-c2nnc(-c3ccc(O)cc3)nn2)cc1 | > 95.1 µM (inactive) | 
72 | CC(C)(C)C1CCC2(CC1)C(C#N)=C(SCC(=O)Nc1ccccc1)NC(=O)C2C#N (stereo not given) |  | 5.15
73 | Cc1nn(C(=O)c2cccs2)c(N)c1-c1ccccc1 | > 30 µM (inactive) | 
74 | COc1cc(C(=O)N2CCN(S(=O)(=O)c3ccc(C)cc3)CC2)ccc1OCc1c(C)noc1C | > 95.1 µM (inactive) | 
75 | Cc1cccc(-c2nc(CSCC(=O)N3CCN(c4ccccn4)CC3)c(C)o2)c1 | 31 µM (inactive) | 

Row | SMILES | EC50 | pEC50
76 | Cc1cc(C(=O)CSc2nnc(-c3ccco3)o2)c(C)n1-c1ccc2c(c1)OCCO2 | > 10 µM (inactive) | 
77 | COC(=O)c1c(C)n(-c2ccc(OC)cc2)c2ccc(O)cc12 | 20.1 µM (inactive) | 
78 | COc1ccc(-c2nc(-c3ccc(Br)o3)no2)cc1OC | > 95.1 µM (inactive) | 
79 | O=C(Nc1ncc(Br)s1)C(Cc1ccccc1)n1cccc1 (stereo not given) | > 10 µM (inactive) | 
80 | COc1cccc(NC(=O)Nc2nnc(N3CCCCC3C)s2)c1 (stereo not given) | 40 µM (inactive) | 
81 | COc1ccc(-c2cn3c(C)c(C(=O)N4CCCc5ccccc54)sc3n2)cc1 | > 95.1 µM (inactive) | 
82 | CCCCOC(=O)c1[nH]c2c(c1C)C(=O)CC(c1cc(OC)c(OC)c(OC)c1)C2 (stereo not given) | 12.1 µM (inactive) | 
83 | CCCn1c(CNc2ccc(Br)cc2)nc2ccccc21 | 38.1 µM (inactive) | 
84 | COc1ccccc1-c1nc(-c2cccc(C)c2)no1 | > 95.1 µM (inactive) | 
85 | COc1ccc(NC(=O)c2cnn3c(C(F)(F)F)cc(-c4ccco4)nc23)cc1OC | > 95.1 µM (inactive) | 
86 | CCN(CC)C(=O)C1CCN(S(=O)(=O)c2ccc3oc4ccccc4c3c2)CC1 | > 95.1 µM (inactive) | 
87 | COc1ccc(-c2nc3cc(NC(=O)Cc4ccc(OC)c(OC)c4)ccc3o2)cc1 | > 10 µM (inactive) | 
88 | CC(=O)c1c(C)[nH]c(C(=O)OCCCCN2C(=O)c3ccccc3C2=O)c1C | > 10 µM (inactive) | 
89 | Cc1ccc2nc(NC(=O)CSc3nc4c(c(=O)n3C)SC(C)C4)sc2c1 (stereo not given) | > 95.1 µM (inactive) | 
90 | CCOc1ccc(-c2nc(-c3ccccc3C)no2)cc1 | > 95.1 µM (inactive) | 
91 | CC1Cc2cc(-c3csc(NC(=O)Cc4cccs4)n3)ccc2N1S(C)(=O)=O (stereo not given) | 23.8 µM (inactive) | 
92 | Cc1cc(NC(=O)c2oc3ccccc3c2C)ccc1-n1cnnn1 | > 30 µM (inactive) | 
93 | CCCc1ccc(Oc2cn[nH]c2-c2ccc(O)cc2O)cc1 | > 10 µM (inactive) | 
94 | CC(C)(C)NC(=O)CSc1ncnc2c1nnn2Cc1ccccc1Cl |  | 5.15
95 | CCC(=NCCOc1ccc(Cl)cc1)c1c(O)n(C)c(=O)n(C)c1=O | 18.9 µM (inactive) | 
96 | CCCCNc1cc(C)nc(NCc2ccccc2)n1 | 12.8 µM (inactive) | 
97 | COc1cccc(-c2nc(-c3ccc(NC(=O)c4cccnc4)cc3)no2)c1 | > 95.1 µM (inactive) | 
98 | CCCN(C(=O)c1cccs1)c1nnc(-c2ccncc2)s1 | > 95.1 µM (inactive) | 
99 | C=CS(=O)(=O)c1ccc(Oc2ccc(S(=O)(=O)C=C)cc2)cc1 |  | 5.97
100 | CN(C)CC(C(=O)c1ccccc1)c1ccccc1 (stereo not given) |  | 5.45
